The subject of the test is Pneumocystis carinii. Briefly: Treatment of Pneumocystis carinii pneumonia in Sprague-Dawley rats (extent of disease by histologic score). The test is classed as in vivo, male Sprague-Dawley rats. As to conditions: for Extent of Disease by Histologic Score: number of animals with score 0.5 / Extent of disease by histologic score (combined): number of animals in scoring group 0.5: 0.5 = <10 cysts found per 2 sections; for Extent of disease by histologic score (combined): number of animals in scoring group 0.5 / Extent of disease by histologic score (combined): number of animals in scoring group 1 / Extent of disease by histologic score (combined): number of animals in scoring group 2 / Extent of disease by histologic score (combined): number of animals in scoring group 3 / Extent of disease by histologic score (combined): number of animals in scoring group 4: Table XII composite; for Extent of disease by histologic score (combined): number of animals in scoring group 2: 5-10% of lung involved; for Extent of disease by histologic score (combined): number of animals in scoring group 3: 10-50% of lung involved; for Efficacy in treating PCP compared with related compounds of the series: effect of chain length or substituent. On the procedure: Induction and Treatment Of Pneumocystis Carinii in Sprague-Dawley Rats
Male Sprague-Dawley rats, barrier raised, non-certified virus free, weighing 150-200g were obtained from Hilltop Laboratories and housed individually. Animals were begun on a low (8%) protein diet (ICN Biomedicals, Cincinnati, OH) and drinking water containing tetracycline (0.5 mg/ml) and dexamethasone (1.0 μg/ml) immediately upon arrival. This treatment was given for the next 8 weeks, monitoring fluid intake daily and weighing animals weekly. Dilutions of the drinking solution were made when animals consumed too much fluid so as to prevent cortisone poisoning. At the beginning of the sixth week, animals were divided into groups of 8 animals each and the test compounds were administered daily by i.v. injection at a dose of 10 mg/kg, unless otherwise noted, for the next 14 days.
Animals were sacrificed at the end of the eighth week by chloroform inhalation and the left lung was removed aseptically and placed in sterile Hank's balanced salts solution without calcium or magnesium (HBSS-) for the ground tissue procedure. The right lung was inflated in situ with 10% […] and removed for histologic examination GMS staining. […]

[1] abbreviates: 10 mg/kg i.v. daily, 14 days, 1 = scattered cysts, <5% of lung involved.
The mark [2] stands for this setting: 10 mg/kg i.v. daily, 14 days, 2 = scattered cysts, 5-10% lung involved or small foci of infection.
[3] abbreviates: 10 mg/kg i.v. daily, 14 days, 3 = scattered cysts, 10-50% of lung involved with some intense areas of infection.
[4] abbreviates: 10 mg/kg i.v. daily, 14 days, 4 = >50% of lung involved with many intense areas of focal infection.
The mark [5] stands for this setting: 10 mg/kg unless otherwise noted.
Setting [6] is: 10 mg/kg, 1 = scattered cysts, <5% of lung involved.
[7] abbreviates: 10 mg/kg, 4 = >50% of lung involved.

Turning to `N=C(N)c1ccc(OCCOc2ccc(C(=N)N)cc2N)c(N)c1` [Example 3], for the setting “10 mg/kg i.v. daily, 14 days”, the “Extent of Disease by Histologic Score: number of animals with score 0.5” value was 4 animals. Under setting [1], the “Extent of Disease by Histologic Score: number of animals with score 1” value is recorded as 4 animals. Besides, the “Extent of Disease by Histologic Score: number of animals with score 2” value under setting [2] was determined as 0 animals. Also, the “Extent of Disease by Histologic Score: number of animals with score 3” value under setting [3] is 0 animals. The “Extent of Disease by Histologic Score: number of animals with score 4” value under setting [4] is reported as 0 animals. Under setting [5], the “Efficacy in treating PCP compared with control” value (from here on “Efficacy … compared with control”) is “significantly better than the control” and the “Efficacy in treating PCP compared with pentamidine” value is on record as “approximately comparable to pentamidine in efficacy”. In addition, for the setting “10 mg/kg”, the “Extent of disease by histologic score (combined): number of animals in scoring group 0.5” value was determined as 4 animals. Besides, the “Extent of disease by histologic score (combined): number of animals in scoring group 1” value under setting [6] is given as 4 animals. Also, the “Extent of disease by histologic score (combined): number of animals in scoring group 2” value (10 mg/kg, 2 = scattered cysts) is reported as 0 animals. Further, where the note is “10 mg/kg, 3 = scattered cysts”, the “Extent of disease by histologic score (combined): number of animals in scoring group 3” value was determined as 0 animals. The “Extent of disease by histologic score (combined): number of animals in scoring group 4” value under setting [7] came to 0 animals.

In the case of `N=C(N)c1ccc(NCCCCNc2ccc(C(=N)N)cc2N)c(N)c1` [Example 37], the “Efficacy in treating PCP compared with related compounds of the series” value is “better than the nitro substituted compounds”. For the same molecule, the “Extent of Disease by Histologic Score: number of animals with score 0.5” value (10 mg/kg i.v. daily, 14 days) amounted to 0 animals. The “Extent of Disease by Histologic Score: number of animals with score 1” value under setting [1] is 4 animals. In addition, the “Extent of Disease by Histologic Score: number of animals with score 2” value under setting [2] came out at 3 animals. Further, under setting [3], the “Extent of Disease by Histologic Score: number of animals with score 3” value is 1 animals. Moreover, the “Extent of Disease by Histologic Score: number of animals with score 4” value under setting [4] worked out at 0 animals. Also, the “Extent of disease by histologic score (combined): number of animals in scoring group 0.5” value (10 mg/kg) was 0 animals. Further, the “Extent of disease by histologic score (combined): number of animals in scoring group 1” value under setting [6] came out at 4 animals. For the same molecule, the “Extent of disease by histologic score (combined): number of animals in scoring group 2” value (10 mg/kg, 2 = scattered cysts) is on record as 3 animals. For the setting “10 mg/kg, 3 = scattered cysts”, the “Extent of disease by histologic score (combined): number of animals in scoring group 3” value turned out to be 1 animals. Also, the “Extent of disease by histologic score (combined): number of animals in scoring group 4” value under setting [7] stood at 0 animals.

For the molecule `COc1cc(C(=N)N)ccc1OCCCCCOc1ccc(C(=N)N)cc1OC` [Example 15], the “Extent of Disease by Histologic Score: number of animals with score 0.5” value reads like this: (5 mg/kg i.v. daily, 14 days) 0 animals; (Table III, Example 15 (Table XII footnote d: 2.5 mg/kg)) 2 animals. The “Extent of Disease by Histologic Score: number of animals with score 1” value amounted to 3 animals (5 mg/kg i.v. daily, 14 days, 1 = scattered cysts, <5% of lung involved) and 1 animals (Table III, Example 15 (Table XII footnote d: 2.5 mg/kg), 1 = <5% of lung involved). Further, the “Extent of Disease by Histologic Score: number of animals with score 2” value is 4 animals (5 mg/kg i.v. daily, 14 days, 2 = scattered cysts, 5-10% lung involved or small foci of infection) and 3 animals (Table III, Example 15 (Table XII footnote d: 2.5 mg/kg), 2 = 5-10% lung involved). For the same molecule, the “Extent of Disease by Histologic Score: number of animals with score 3” value reads like this: (5 mg/kg i.v. daily, 14 days, 3 = scattered cysts, 10-50% of lung involved with some intense areas of infection) 1 animals; (Table III, Example 15 (Table XII footnote d: 2.5 mg/kg), 3 = 10-50% of lung involved) 0 animals. Moreover, the “Extent of Disease by Histologic Score: number of animals with score 4” value runs as follows: (5 mg/kg i.v. daily, 14 days, 4 = >50% of lung involved with many intense areas of focal infection) 0 animals; (Table III, Example 15 (Table XII footnote d: 2.5 mg/kg), 4 = >50% of lung involved) 0 animals. The “Efficacy in treating PCP compared with pentamidine” value under setting [5] is “improved performance in treating pcp”. Also, for the setting “tested at 2.5 mg/kg”, the “Extent of disease by histologic score (combined): number of animals in scoring group 0.5” value was determined as 2 animals. For the same molecule, the “Extent of disease by histologic score (combined): number of animals in scoring group 1” value (tested at 2.5 mg/kg, 1 = scattered cysts, <5% of lung involved) turned out to be 4 animals. For the setting “tested at 2.5 mg/kg, 2 = scattered cysts”, the “Extent of disease by histologic score (combined): number of animals in scoring group 2” value turned out to be 7 animals. The “Extent of disease by histologic score (combined): number of animals in scoring group 3” value (tested at 2.5 mg/kg, 3 = scattered cysts) is 1 animals. For the same molecule, where the note is “tested at 2.5 mg/kg, 4 = >50% of lung involved”, the “Extent of disease by histologic score (combined): number of animals in scoring group 4” value is reported as 0 animals. Moreover, the “Efficacy … compared with control” value (compound at 5 mg/kg) is “significantly better, at one half the dose, than the control”.

On to `N=C(N)c1ccc(OCCCOc2ccc(C(=N)N)cc2)cc1` [Example 4], for which the “Extent of Disease by Histologic Score: number of animals with score 0.5” value (10 mg/kg i.v. daily, 14 days) came out at 3 animals. Further, under setting [1], the “Extent of Disease by Histologic Score: number of animals with score 1” value came to 4 animals. Also, under setting [2], the “Extent of Disease by Histologic Score: number of animals with score 2” value worked out at 1 animals. The “Extent of Disease by Histologic Score: number of animals with score 3” value under setting [3] stood at 0 animals. For the same molecule, the “Extent of Disease by Histologic Score: number of animals with score 4” value under setting [4] came out at 0 animals. Moreover, under setting [5], the “Efficacy in treating PCP compared with pentamidine” value is “better at controlling the extent of the pcp infection than either para- or meta- pentamidine”. The “Extent of disease by histologic score (combined): number of animals in scoring group 0.5” value (10 mg/kg) amounted to 3 animals. The “Extent of disease by histologic score (combined): number of animals in scoring group 1” value under setting [6] came out at 4 animals. Further, under “10 mg/kg, 2 = scattered cysts”, the “Extent of disease by histologic score (combined): number of animals in scoring group 2” value is recorded as 1 animals. For the same molecule, the “Extent of disease by histologic score (combined): number of animals in scoring group 3” value (10 mg/kg, 3 = scattered cysts) came to 0 animals. The “Extent of disease by histologic score (combined): number of animals in scoring group 4” value under setting [7] worked out at 0 animals.

With `N=C(N)c1ccc(NCCCNc2ccc(C(=N)N)cc2N)c(N)c1` [Example 36], the “Efficacy in treating PCP compared with related compounds of the series” value is “better than the nitro substituted compounds”. Also, the “Extent of Disease by Histologic Score: number of animals with score 0.5” value (10 mg/kg i.v. daily, 14 days) stood at 1 animals. In addition, the “Extent of Disease by Histologic Score: number of animals with score 1” value under setting [1] turned out to be 4 animals. Also, under setting [2], the “Extent of Disease by Histologic Score: number of animals with score 2” value is 2 animals. The “Extent of Disease by Histologic Score: number of animals with score 3” value under setting [3] was determined as 0 animals. Moreover, the “Extent of Disease by Histologic Score: number of animals with score 4” value under setting [4] turned out to be 0 animals. For the same molecule, the “Extent of disease by histologic score (combined): number of animals in scoring group 0.5” value (10 mg/kg) came out at 1 animals. In addition, under setting [6], the “Extent of disease by histologic score (combined): number of animals in scoring group 1” value amounted to 4 animals. For the same molecule, the “Extent of disease by histologic score (combined): number of animals in scoring group 2” value (10 mg/kg, 2 = scattered cysts) is reported as 2 animals. The “Extent of disease by histologic score (combined): number of animals in scoring group 3” value (10 mg/kg, 3 = scattered cysts) came out at 0 animals. For the same molecule, under setting [7], the “Extent of disease by histologic score (combined): number of animals in scoring group 4” value worked out at 0 animals.

Consider `c1cc(C2=NCCN2)ccc1OCCCCOc1ccc(C2=NCCN2)cc1` [Example 40], for which, for the setting “10 mg/kg i.v. daily, 14 days”, the “Extent of Disease by Histologic Score: number of animals with score 0.5” value was 1 animals. The “Extent of Disease by Histologic Score: number of animals with score 1” value under setting [1] came out at 2 animals. The “Extent of Disease by Histologic Score: number of animals with score 2” value under setting [2] was 3 animals. Moreover, the “Extent of Disease by Histologic Score: number of animals with score 3” value under setting [3] is recorded as 1 animals. Further, the “Extent of Disease by Histologic Score: number of animals with score 4” value under setting [4] is listed as 0 animals. Besides, the “Efficacy … compared with control” value under setting [5] is listed as “significantly better than the control”. For the same molecule, the “Extent of disease by histologic score (combined): number of animals in scoring group 0.5” value (10 mg/kg) turned out to be 1 animals. Further, the “Extent of disease by histologic score (combined): number of animals in scoring group 1” value under setting [6] turned out to be 2 animals. For the same molecule, the “Extent of disease by histologic score (combined): number of animals in scoring group 2” value (10 mg/kg, 2 = scattered cysts) is 3 animals. Moreover, where the note is “10 mg/kg, 3 = scattered cysts”, the “Extent of disease by histologic score (combined): number of animals in scoring group 3” value worked out at 1 animals. Moreover, the “Extent of disease by histologic score (combined): number of animals in scoring group 4” value under setting [7] is 0 animals.

Regarding `N=C(N)c1cccc(OCCCOc2cccc(C(=N)N)c2)c1` [Example 26], the “Extent of Disease by Histologic Score: number of animals with score 0.5” value (10 mg/kg i.v. daily, 14 days) is reported as 2 animals. For the same molecule, the “Extent of Disease by Histologic Score: number of animals with score 1” value under setting [1] worked out at 1 animals. Moreover, under setting [2], the “Extent of Disease by Histologic Score: number of animals with score 2” value amounted to 4 animals. Besides, the “Extent of Disease by Histologic Score: number of animals with score 3” value under setting [3] came to 1 animals. For the same molecule, under setting [4], the “Extent of Disease by Histologic Score: number of animals with score 4” value is on record as 0 animals. Further, the “Extent of disease by histologic score (combined): number of animals in scoring group 0.5” value (10 mg/kg) is 2 animals. In addition, the “Extent of disease by histologic score (combined): number of animals in scoring group 1” value under setting [6] was determined as 1 animals. Further, for the setting “10 mg/kg, 2 = scattered cysts”, the “Extent of disease by histologic score (combined): number of animals in scoring group 2” value was determined as 4 animals. Besides, the “Extent of disease by histologic score (combined): number of animals in scoring group 3” value (10 mg/kg, 3 = scattered cysts) is 1 animals. Also, the “Extent of disease by histologic score (combined): number of animals in scoring group 4” value under setting [7] is 0 animals.

Source of the values: patent US4933347A, “Diamidines and bis(imidazolines) for the treatment of and prophylaxis against pneumocystis carinii pneumonia” (University of North Carolina at Chapel Hill, priority 1988, dated 1990).
